How the values were obtained:
Conditions in all cases: treatment: drug alone; 5 days
SN12C [1] = assay: AUC of dose-response viability curve, drug alone (arbitrary (AUC of normalised viability)); higher = less growth inhibition
Protocol: (§1)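 Primary HTS: 8 RCC cell lines treated with 8 doses (up to 10 uM) of each library drug alone for 5 days; viability read by CellTiter-Glo and normalised to DMSO. GI50 was fitted with XLfit (4-parameter), AUC is the area under the dose-response curve, and minimum viability is the lowest fraction of DMSO viability across doses.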

786-O [2] = assay: as above
Protocol: as §1

CAKI-1 [3] = assay: as above
Protocol: as §1

769-P [4] = assay: as above
Protocol: as §1

TK-10 [5] = assay: as above
Protocol: as §1

UO-31 [6] = assay: as above
Protocol: as §1

A498 [7] = assay: as above
Protocol: as §1

ACHN [8] = assay: as above
Protocol: as §1

SN12C [9] = assay: GI50, drug alone; higher = less potent
Protocol: as §1

786-O [10] = assay: GI50, drug alone; higher = less potent
Protocol: as §1

CAKI-1 [11] = assay: GI50, drug alone; higher = less potent
Protocol: as §1

769-P [12] = assay: GI50, drug alone; higher = less potent
Protocol: as §1

TK-10 [13] = assay: GI50, drug alone; higher = less potent
Protocol: as §1

UO-31 [14] = assay: GI50, drug alone; higher = less potent
Protocol: as §1

A498 [15] = assay: GI50, drug alone; higher = less potent
Protocol: as §1

ACHN [16] = assay: GI50, drug alone; higher = less potent
Protocol: as §1

SN12C [17] = assay: minimum viability across doses, drug alone, relative to DMSO (fraction); higher = less growth inhibition
Protocol: as §1

786-O [18] = assay: as above
Protocol: as §1

CAKI-1 [19] = assay: as above
Protocol: as §1

769-P [20] = assay: as above
Protocol: as §1

TK-10 [21] = assay: as above
Protocol: as §1

UO-31 [22] = assay: as above
Protocol: as §1

A498 [23] = assay: as above
Protocol: as §1

ACHN [24] = assay: as above
Protocol: as §1

| SMILES | GI50, drug alone (786-O [10]) [µM] | GI50, drug alone (ACHN [16]) [µM] | AUC of dose-response viability curve (SN12C [1]) | AUC of dose-response viability curve (786-O [2]) | AUC of dose-response viability curve (CAKI-1 [3]) | AUC of dose-response viability curve (769-P [4]) | AUC of dose-response viability curve (TK-10 [5]) | AUC of dose-response viability curve (UO-31 [6]) | AUC of dose-response viability curve (A498 [7]) | AUC of dose-response viability curve (ACHN [8]) | GI50, drug alone (SN12C [9]) [µM] | GI50, drug alone (CAKI-1 [11]) [µM] | GI50, drug alone (769-P [12]) [µM] | GI50, drug alone (TK-10 [13]) [µM] | GI50, drug alone (UO-31 [14]) [µM] | GI50, drug alone (A498 [15]) [µM] | minimum viability across doses (SN12C [17]) | minimum viability across doses (786-O [18]) | minimum viability across doses (CAKI-1 [19]) | minimum viability across doses (769-P [20]) | minimum viability across doses (TK-10 [21]) | minimum viability across doses (UO-31 [22]) | minimum viability across doses (A498 [23]) | minimum viability across doses (ACHN [24]) |
| --- | --- | --- | --- | --- | --- | --- | --- | --- | --- | --- | --- | --- | --- | --- | --- | --- | --- | --- | --- | --- | --- | --- | --- | --- |
| CO[C@H]1C[C@@H]2CC[C@@H](C)[C@@](O)(O2)C(=O)C(=O)N2CCCC[C@H]2C(=O)O[C@H]([C@H](C)C[C@@H]2CC[C@@H](O)[C@H](OC)C2)CC(=O)[C@H](C)/C=C(\C)[C@@H](O)[C@@H](OC)C(=O)[C@H](C)C[C@H](C)/C=C/C=C/C=C/1C [Rapamycin (Sirolimus)] | < 0.003 | 0.171 | 2.11 | 0.986 | 1.91 | 2.08 | 2.04 | 0.524 | 2.44 | 1.77 | 1.76 | 0.358 | > 10 | > 10 | < 0.003 | > 10 | 0.557 | 0.211 | 0.377 | 0.504 | 0.491 | 0.0503 | 0.547 | 0.38 |
| CC[C@H](CO)Nc1nc(NCc2ccccc2)c2ncn(C(C)C)c2n1 [Roscovitine (Seliciclib, CYC202)] | 4.97 | 7.52 | 3.57 | 2.76 | 3.27 | 3.28 | 3.17 | 3.47 | 3.91 | 3.25 | > 10 | > 10 | > 10 | > 10 | > 10 | > 10 | 0.769 | 0.208 | 0.763 | 0.848 | 0.655 | 0.544 | 1.03 | 0.36 |
| Cc1cc(C)c(/C=C2\C(=O)Nc3ccccc32)[nH]1 [Semaxanib (SU5416)] | > 10 | > 10 | 3.42 | 3.12 | 3.45 | 3.45 | 3.2 | 4.68 | 3.76 | 2.92 | > 10 | > 10 | > 10 | > 10 | > 10 | > 10 | 0.911 | 0.778 | 0.902 | 0.892 | 0.778 | 0.928 | 0.97 | 0.76 |
| CNC(=O)c1cc(Oc2ccc(NC(=O)Nc3ccc(Cl)c(C(F)(F)F)c3)cc2)ccn1.Cc1ccc(S(=O)(=O)O)cc1 [Sorafenib (Nexavar)] | 4.87 | 8.05 | 2.9 | 2.7 | 3.55 | 3.31 | 3.25 | 2.44 | 3.4 | 3.46 | 5.13 | 9.2 | > 10 | > 10 | 0.734 | > 10 | 0.154 | 0.0994 | 0.18 | 0.592 | 0.513 | 0.00476 | 0.627 | 0.0796 |

The next lines start with results.

| GI50, drug alone (786-O [10]) [µM] | GI50, drug alone (ACHN [16]) [µM] | SMILES | AUC of dose-response viability curve (SN12C [1]) | AUC of dose-response viability curve (786-O [2]) | AUC of dose-response viability curve (CAKI-1 [3]) | AUC of dose-response viability curve (769-P [4]) | AUC of dose-response viability curve (TK-10 [5]) | AUC of dose-response viability curve (UO-31 [6]) | AUC of dose-response viability curve (A498 [7]) | AUC of dose-response viability curve (ACHN [8]) | GI50, drug alone (SN12C [9]) [µM] | GI50, drug alone (CAKI-1 [11]) [µM] | GI50, drug alone (769-P [12]) [µM] | GI50, drug alone (TK-10 [13]) [µM] | GI50, drug alone (UO-31 [14]) [µM] | GI50, drug alone (A498 [15]) [µM] | minimum viability across doses (SN12C [17]) | minimum viability across doses (786-O [18]) | minimum viability across doses (CAKI-1 [19]) | minimum viability across doses (769-P [20]) | minimum viability across doses (TK-10 [21]) | minimum viability across doses (UO-31 [22]) | minimum viability across doses (A498 [23]) | minimum viability across doses (ACHN [24]) |
| --- | --- | --- | --- | --- | --- | --- | --- | --- | --- | --- | --- | --- | --- | --- | --- | --- | --- | --- | --- | --- | --- | --- | --- | --- |
| > 10 | 7.85 | CNC(=O)c1cc(Oc2ccc(NC(=O)Nc3ccc(Cl)c(C(F)(F)F)c3)c(F)c2)ccn1 [Regorafenib (BAY 73-4506)] | 3.16 | 2.63 | 3.16 | 3.39 | 3.02 | 3.11 | 3.76 | 3.38 | 8.24 | 7.35 | > 10 | > 10 | 2.55 | > 10 | 0.387 | 0.598 | 0.363 | 0.894 | 0.536 | 0.186 | 0.883 | 0.39 |
| > 10 | > 10 | Cn1cc(-c2ccc3nnc(Sc4ccc5ncccc5c4)n3n2)cn1 [SGX-523] | 3.21 | 2.77 | 3.18 | 3.22 | 3.06 | 3.83 | 3.75 | 3.23 | > 10 | > 10 | > 10 | > 10 | > 10 | > 10 | 0.746 | 0.56 | 0.806 | 0.776 | 0.775 | 1.01 | 0.855 | 0.725 |
| 0.0504 | 0.168 | CS(=O)(=O)O.O=C(Nc1cccc(Cl)c1)Nc1ncc(CCNc2ncnc3ccsc23)s1 [SNS-314] | 2.54 | 1.76 | 1.36 | 2.2 | 2.73 | 4.36 | 4.02 | 1.77 | 1.75 | 0.0361 | 0.506 | > 10 | > 10 | > 10 | 0.245 | 0.159 | 0.172 | 0.343 | 0.536 | 0.891 | 0.637 | 0.17 |
| 2.81 | 1.03 | CN1CCN(CCOc2cc(OC3CCOCC3)c3c(Nc4c(Cl)ccc5c4OCO5)ncnc3c2)CC1 [Saracatinib (AZD0530)] | 2.84 | 2.35 | 3.08 | 2.47 | 2.45 | 4.46 | 3.69 | 2.46 | > 10 | 2.34 | 1.26 | 1.22 | 8.99 | > 10 | 0.504 | 0.302 | 0.213 | 0.0835 | 0.109 | 0.447 | 0.958 | 0.22 |
